This is an account of results in patent US8673908B2, “Kynurenine production inhibitor” (Kyowa Hakko Kirin Co., Ltd., priority 2008, dated 2014).

For this test, the system named is kynurenine production in IFN-γ-treated KATO-III cells. In words: Inhibitory activity on kynurenine production (Test Example 1). It is filed as cell-based. The settings on record: Homo sapiens, IFN-γ treatment, culture for 96 hours, read-out: IC50 value, inhibition of kynurenine production. In short, it runs like this:
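KATO-III human gastric cancer cells (2,000/well, RPMI 1640 + 10% FBS) were cultured with compound and IFN-γ (31.25 ng/mL in the cell suspension), DMSO ≤0.1%, for 96 h at 37 °C, 5% CO2. Kynurenine was read at A480 after TCA at 65 °C and p-dimethylaminobenzaldehyde. Inhibition used IFN-γ-treated and untreated DMSO wells as references.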
`CCCS(=O)(=O)Nc1nc2ccccc2nc1OC(c1cnc(Cl)s1)C(F)(F)F` (centres unmarked) [Compound 196, N-{3-[1-(2-chlorothiazol-5-yl)-2,2,2-trifluoroethoxy]-quinoxalin-2-yl}propane-1-sulfonamide]: the IC50 is less than 1000 nM.

On to `O=S(=O)(Nc1nc2ccccc2nc1OC(c1ccc(Cl)cc1)C(F)(F)F)c1ccccc1Cl` (centres unmarked) [Compound 53, 2-chloro-N-{3-[2,2,2-trifluoro-1-(4-chlorophenyl)ethoxy]-quinoxalin-2-yl}benzenesulfonamide], for which the IC50 is less than 1000 nM. For `Cc1ccc(C(Oc2nc3ccccc3nc2NS(=O)(=O)c2c(C)nn(C)c2Cl)C(F)(F)F)cn1` (centres unmarked) [Compound 69, 5-chloro-1,3-dimethyl-N-{3-[2,2,2-trifluoro-1-(6-methylpyridin-3-yl)ethoxy]quinoxalin-2-yl}-1H-pyrazole-4-sulfonamide], the IC50 is less than 1000 nM. With `CN(C)C(=O)c1ccc(C(Oc2nc3ccccc3nc2NS(=O)(=O)c2ccccc2Cl)C(F)(F)F)cc1` (centres unmarked) [Compound 63, 2-chloro-N-{3-[2,2,2-trifluoro-1-(4-dimethylcarbamoyl-phenyl)ethoxy]quinoxalin-2-yl}benzenesulfonamide], the IC50 is less than 1000 nM. For the compound `CCCNS(=O)(=O)Nc1nc2ccccc2nc1OC(c1ccc(C)[n+]([O-])c1)C(F)(F)F` (centres unmarked) [Compound 284, 2-methyl-5-{2,2,2-trifluoro-1-[3-(N-propylsulfamoylamino)-quinoxalin-2-yloxy]ethyl}pyridine 1-oxide], the IC50 is less than 1000 nM.

`CS(=O)(=O)Nc1nc2ccccc2nc1OC(c1cccnc1)C(F)(F)F` (centres unmarked) [Compound 148, N-{3-[2,2,2-trifluoro-1-(pyridin-3-yl)ethoxy]quinoxalin-2-yl}methanesulfonamide]: the IC50 lay within 1000 to 10000 nM. In the case of `CCCS(=O)(=O)Nc1nc2ccccc2nc1OC(c1ccc(CN(C)C)cc1)C(F)(F)F` (centres unmarked) [Compound 197, N-{3-[1-(4-((dimethylamino)methyl)phenyl)-2,2,2-trifluoroethoxy]quinoxalin-2-yl}propane-1-sulfonamide], the IC50 was less than 1000 nM. The result for `Cc1nn(C)c(Cl)c1S(=O)(=O)Nc1nc2ccccc2nc1OC(c1cccnc1)C1(F)CCOCC1` (centres unmarked) [Compound 87, 5-chloro-1,3-dimethyl-N-{3-[4-fluorotetrahydropyran-4-yl-(pyridin-3-yl)methoxy]quinoxalin-2-yl}-1H-pyrazole-4-sulfonamide] reads less than 1000 nM; that for `O=S(=O)(Nc1nc2ccccc2nc1OC(c1cccnc1)c1cncs1)c1ccccc1Cl` (centres unmarked) [Compound 243, 2-chloro-N-{3-[pyridin-3-yl(thiazol-5-yl)methoxy]-quinoxalin-2-yl}benzenesulfonamide], less than 1000 nM. In the case of `Cc1cccc2nc(OC(c3cccnc3)C(F)(F)F)c(NS(=O)(=O)c3ccccc3Cl)nc12` (centres unmarked) [Compound 265, 2-chloro-N-{8-methyl-3-[2,2,2-trifluoro-1-(pyridin-3-yl)-ethoxy]quinoxalin-2-yl}benzenesulfonamide] it was less than 1000 nM; in that of `CCCNS(=O)(=O)Nc1nc2ccccc2nc1OC(c1cnc(C)s1)C(F)(F)F` (centres unmarked) [Compound 323, N-propyl-N′-{3-[2,2,2-trifluoro-1-(2-methylthiazol-5-yl)-ethoxy]quinoxalin-2-yl}sulfuric diamide], less than 1000 nM; in that of `CC(C)S(=O)(=O)Nc1nc2ccccc2nc1OC(c1cccnc1)C(F)(F)F` (centres unmarked) [Compound 168, N-{3-[2,2,2-trifluoro-1-(pyridin-3-yl)ethoxy]quinoxalin-2-yl}propane-2-sulfonamide], less than 1000 nM. The result for `CCCS(=O)(=O)Nc1nc2ccccc2nc1OC(c1cncc(F)c1)C(F)(F)F` (centres unmarked) [Compound 332, N-{3-[2,2,2-trifluoro-1-(5-fluoropyridin-3-yl)ethoxy]-quinoxalin-2-yl}propane-1-sulfonamide] reads less than 1000 nM; that for `O=S(=O)(Nc1nc2ccccc2nc1OCc1ccc2ncccc2c1)c1cccc(Cl)c1Cl` [Compound 24, 2,3-dichloro-N-{3-[(quinolin-6-yl)methoxy]quinoxalin-2-yl}-benzenesulfonamide], less than 1000 nM. On to `CCNS(=O)(=O)Nc1nc2ccccc2nc1OC(c1cccnc1)C(F)(F)F` (centres unmarked) [Compound 195, N-ethyl-N′-{3-[2,2,2-trifluoro-1-(pyridin-3-yl)ethoxy]-quinoxalin-2-yl}sulfuric diamide], for which the IC50 is less than 1000 nM. As to `COCCCNS(=O)(=O)Nc1nc2ccccc2nc1OC(c1cccnc1)C(F)(F)F` (centres unmarked) [Compound 206, N-{3-[2,2,2-trifluoro-1-(pyridin-3-yl)ethoxy]quinoxalin-2-yl}-N′-(3-methoxypropyl)-sulfuric diamide], the IC50 was less than 1000 nM. For the compound `O=S(=O)(Nc1ncc(Cl)nc1OCc1ccc2ccccc2c1)c1cccc(Cl)c1Cl` [Compound 3], the IC50 was 1000 to 10000 nM.

Consider `O=S(=O)(Nc1nc2ccccc2nc1OCc1ccc2ccccc2c1)c1c(Cl)cccc1Cl` [Compound 27, 2,6-dichloro-N-{3-[(2-naphthyl)methoxy]quinoxalin-2-yl}-benzenesulfonamide], for which the IC50 was less than 1000 nM. In the case of `O=S(=O)(Nc1nc2ccccc2nc1OCc1ccc2ccccc2c1)c1ccc(Cl)c(Cl)c1` [Compound 30, 3,4-dichloro-N-{3-[(2-naphthyl)methoxy]quinoxalin-2-yl}-benzenesulfonamide] it was 1000 to 10000 nM; in that of `O=S(=O)(Cc1ccccc1Cl)Nc1nc2ccccc2nc1OC(c1cccnc1)C(F)(F)F` (centres unmarked) [Compound 173, 1-(2-chlorophenyl)-N-{3-[2,2,2-trifluoro-1-(pyridin-3-yl)-ethoxy]quinoxalin-2-yl}methanesulfonamide], less than 1000 nM. For the compound `Cc1noc(C)c1S(=O)(=O)Nc1nc2ccccc2nc1OC(c1cccnc1)C(F)(F)F` (centres unmarked) [Compound 155, 3,5-dimethyl-N-{3-[2,2,2-trifluoro-1-(pyridin-3-yl)ethoxy]-quinoxalin-2-yl}isoxazole-4-sulfonamide], the IC50 was less than 1000 nM. Regarding `Cc1noc(C)c1S(=O)(=O)Nc1nc2ccccc2nc1OC(c1cccnc1)C1(F)CCOCC1` (centres unmarked) [Compound 88, 3,5-dimethyl-N-{3-[4-fluorotetrahydropyran-4-yl(pyridin-3-yl)methoxy]quinoxalin-2-yl}isoxazole-4-sulfonamide], the IC50 was less than 1000 nM. Consider `O=S(=O)(Nc1nc2ccccc2nc1OC(c1cccnc1)C(F)(F)F)C1CCCCC1` (centres unmarked) [Compound 183, N-{3-[2,2,2-trifluoro-1-(pyridin-3-yl)ethoxy]quinoxalin-2-yl}cyclohexanesulfonamide], for which the IC50 was less than 1000 nM. As for `O=S(=O)(Nc1nc2ccccc2nc1O[C@H](c1cccnc1)C(F)(F)F)NC1CC1` [Compound 317, (R)—N-cyclopropyl-N′-{3-[2,2,2-trifluoro-1-(pyridin-3-yl)-ethoxy]quinoxalin-2-yl}sulfuric diamide], the IC50 was less than 1000 nM. As to `O=S(=O)(Nc1nc2ccccc2nc1OC(c1cccc(Cl)c1)C(F)(F)F)c1ccccc1Cl` (centres unmarked) [Compound 84, 2-chloro-N-{3-[2,2,2-trifluoro-1-(3-chlorophenyl)ethoxy]-quinoxalin-2-yl}benzenesulfonamide], the IC50 was less than 1000 nM. As for `O=S(=O)(Nc1nc2ccccc2nc1OC(c1ccc(N2CCCC2)nc1)C(F)(F)F)c1ccccc1Cl` (centres unmarked) [Compound 93, 2-chloro-N-{3-{2,2,2-trifluoro-1-[6-(pyrrolidin-1-yl)-pyridin-3-yl]ethoxy}quinoxalin-2-yl}benzenesulfonamide], the IC50 was less than 1000 nM.
